Data on five compounds can be found in ChEMBL document CHEMBL1201862, “PubChem BioAssay data set” (2004).

Holding throughout (test): NCI tumour cell line growth inhibition, 48 h
For test [1], the system named is A498.
Test [2] deals with BT-549.
Test [3] has as its system HCT-116.
Test [4] relates to HCT-15.
The test system of test [5] is HL-60.
Test [6] deals with HOP-62.
The subject of test [7] is M14.
In test [8] the test system is MCF7.
Test [9] concerns MDA-MB-435.
Test [10] concerns MOLT-4.
Test [11] has as its system Malme-3M.
Test [12] deals with NCI-H460.
In test [13] the test system is SF-268.
Test [14] has as its system SK-MEL-28.
Test [15] has as its system SK-MEL-5.
In test [16] the test system is SK-OV-3.
Test [17] has as its system SNB-19.
Test [18] relates to SNB-75.
Test [19] has as its system SR.
Test [20] deals with T47D.

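Growth conditions: 96-well plates. Treatment: test compound, 48 hours, 5 concentrations. Analysis: linear interpolation between bracketing concentrations; unreached endpoints set to highest concentration. GI50 is the concentration that inhibits growth by half.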 The source made the active and inactive calls. Cut-off read from the data, not from the text of the source: active = GI50 up to about 1.1 µM and inactive = higher.

As to `O=C(CCOS(=O)(=O)CF)N1CCN(C(=O)CCOS(=O)(=O)CF)CC1`, the GI50 in test [1] is > 100 µM (inactive); in test [2], > 100 µM (inactive); in [3], 57 µM (inactive); in test [4] it was above 100 µM; in test [5], 5.06 µM (inactive); in test [6] it was 43.2 µM (inactive). Also, the GI50 is 58.6 µM (inactive) in test [7]; 18.6 µM (inactive) in test [8]; > 100 µM (inactive) in [9]; 3.03 µM (inactive) in test [10]; > 57.3 µM (inactive) in test [11]; 5.27 µM (inactive) in [12]. The GI50 in [13] was 24.4 µM (inactive); in test [14], > 100 µM (inactive); in test [15] it was 51.6 µM (inactive); in test [16] it was > 27.2 µM (inactive); in [17], 58.3 µM (inactive); in test [18], 10.1 µM (inactive). Besides, the GI50 in [19] is 9.08 µM (inactive); in test [20], 43.6 µM (inactive).
Turning to `O=C(O)Cc1ccc(Nc2nc3ccccc3nc2C(=O)O)cc1`, the GI50 was > 100 µM (inactive) in test [1]; > 100 µM (inactive) in test [2]; > 100 µM (inactive) in [3]; above 100 µM in test [4]; > 100 µM (inactive) in [5]; > 100 µM (inactive) in test [6]. Moreover, the GI50 in [7], in test [8], in [9], in [10], in test [11] and in [12] was > 100 µM (inactive) in each case. Besides, the GI50 in [13], in test [14], in test [15], in [16], in [17] and in test [18] was > 100 µM (inactive) in each case. The GI50 in test [19] and in test [20] was > 100 µM (inactive) throughout.
As for `Oc1nc(-c2ccc3ccccc3c2)nc2ccccc12`, the GI50 in test [1] is 32.9 µM (inactive); in test [2], > 100 µM (inactive); in test [3] it was 18.7 µM (inactive); in test [4], above 100 µM; in test [5] it was > 100 µM (inactive); in test [6], 14.4 µM (inactive). Besides, the GI50 in [7] is 33.5 µM (inactive); in test [8], 64.4 µM (inactive); in test [9] it was 61.9 µM (inactive); in test [10], > 100 µM (inactive); in test [11], 33.6 µM (inactive); in test [12], 21.9 µM (inactive). Moreover, the GI50 in test [13] is 26.3 µM (inactive); in test [14] it was > 100 µM (inactive); in [15], > 100 µM (inactive); in [16] it was 30.3 µM (inactive); in test [17], 19.1 µM (inactive); in test [18], 4.53 µM (inactive). The values for the GI50 in [19] and in test [20] were 20.4 µM (inactive) and 64 µM (inactive), respectively.
On to `CN(C)Cc1ccc(C(C)(C)C)cc1-c1cc(C(C)(C)C)ccc1CN(C)C`, for which the GI50 is 28.2 µM (inactive) in test [1]; > 100 µM (inactive) in test [2]; 37.7 µM (inactive) in [3]; 72.3 µM in test [4]; 86.9 µM (inactive) in [5]; > 100 µM (inactive) in [6]. Further, the GI50 in test [7] was 20.8 µM (inactive); in test [8] it was 37.6 µM (inactive); in test [9], 55.6 µM (inactive); in test [10], 40.2 µM (inactive); in [11], 31.3 µM (inactive); in [12], 51.1 µM (inactive). The GI50 in test [13] was > 100 µM (inactive); in [14] it was 33.3 µM (inactive); in test [15], 32.4 µM (inactive); in test [16], > 100 µM (inactive); in test [17], > 100 µM (inactive); in [18], 88.1 µM (inactive). Also, the GI50 is 39 µM (inactive) in test [19] and 48.2 µM (inactive) in [20].
For `O=[N+]([O-])c1ccc(Sc2c3ccccc3nc3ccccc23)cn1`, the GI50 is > 100 µM (inactive) in [1]; 14.6 µM (inactive) in test [2]; 3.6 µM (inactive) in test [3]; 9.55 µM in [4]; 10.8 µM (inactive) in test [5]; > 42.6 µM (inactive) in test [6]. The GI50 in [7] was 8.97 µM (inactive); in test [8], 4.48 µM (inactive); in test [9], 16.7 µM (inactive); in [10] it was 2.19 µM (inactive); in test [11], 3.24 µM (inactive); in [12], > 72.9 µM (inactive). Further, the GI50 in test [13] is 20.8 µM (inactive); in test [14], 24.7 µM (inactive); in test [15], 35.1 µM (inactive); in [16], > 53.8 µM (inactive); in test [17] it was 24.5 µM (inactive); in [18] it was 24.9 µM (inactive). The GI50 in test [19] was 3.12 µM (inactive); in test [20], 4.92 µM (inactive).
